Data reported in ChEMBL document CHEMBL1201862, “PubChem BioAssay data set” (2004).
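Step 1: Grow cells in 96-well plates. Step 2: Expose to compound for 48 hours at 5 concentrations. Step 3: Interpolate endpoints linearly; if unreached, use highest concentration. The concentration for 50% growth inhibition is given as GI50.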 Active and inactive are the calls of the source. Rule as the data show it: active = GI50 up to about 1.1 µM and inactive = higher.

Assays:
Assay in all cases: NCI anticancer screen, dose series, 48 h
[1] = tested on: SK-MEL-28
[2] = tested on: NCI-H460
[3] = tested on: TK-10
[4] = tested on: SK-MEL-2
[5] = tested on: HCT-116
[6] = tested on: SNB-75
[7] = tested on: SF-539
[8] = tested on: PC-3
[9] = tested on: SNB-19
[10] = tested on: OVCAR-3
[11] = tested on: KM12
[12] = tested on: A549
[13] = tested on: K562
[14] = tested on: UO-31
[15] = tested on: MDA-N
[16] = tested on: U-251
[17] = tested on: MDA-MB-231
[18] = tested on: NCI/ADR-RES
[19] = tested on: Hs-578T
[20] = tested on: 786-0
[21] = tested on: UACC-257
[22] = tested on: HOP-92
[23] = tested on: T47D
[24] = tested on: EKVX
[25] = tested on: NCI-H226
[26] = tested on: OVCAR-5
[27] = tested on: M14
[28] = tested on: HT-29
[29] = tested on: HCT-15
[30] = tested on: UACC-62
[31] = tested on: SF-295
[32] = tested on: COLO 205
[33] = tested on: RPMI-8226
[34] = tested on: SW-620
[35] = tested on: RXF 393
[36] = tested on: SF-268
[37] = tested on: IGROV-1
[38] = tested on: MDA-MB-435
[39] = tested on: MCF7
[40] = tested on: CAKI-1
[41] = tested on: BT-549
[42] = tested on: A498
[43] = tested on: SR
[44] = tested on: OVCAR-4
[45] = tested on: HCC 2998
[46] = tested on: HOP-62
[47] = tested on: DU-145
[48] = tested on: HL-60
[49] = tested on: ACHN
[50] = tested on: SK-MEL-5
[51] = tested on: SK-OV-3
[52] = tested on: NCI-H522
[53] = tested on: Malme-3M
[54] = tested on: NCI-H23
[55] = tested on: LOX IMVI
[56] = tested on: OVCAR-8
[57] = tested on: SN12C
[58] = tested on: CCRF-CEM
[59] = tested on: MOLT-4

Measured: GI50

O=C(O)c1cccc(C(=O)O)c1[S+]([O-])Cc1ccccc1 (stereo not drawn)
> 100 µM: [29]
inactive: [1] > 100 µM | [2] > 100 µM | [3] > 100 µM | [4] > 100 µM | [5] > 100 µM | [6] > 100 µM | [7] > 100 µM | [8] > 100 µM | [9] > 100 µM | [10] > 100 µM | [11] > 100 µM | [12] > 100 µM | [13] > 100 µM | [14] > 100 µM | [15] > 100 µM | [16] > 100 µM | [17] > 100 µM | [18] > 100 µM | [19] > 100 µM | [20] > 100 µM | [21] > 100 µM | [22] > 100 µM | [23] > 100 µM | [24] > 100 µM | [25] > 100 µM | [26] > 100 µM | [27] > 100 µM | [28] > 100 µM | [30] > 100 µM | [31] > 100 µM | [32] > 100 µM | [33] > 100 µM | [34] > 100 µM | [35] > 100 µM | [36] > 100 µM | [37] > 100 µM | [38] > 100 µM | [39] > 100 µM | [40] > 100 µM | [41] > 100 µM | [42] > 100 µM | [43] > 100 µM | [44] > 100 µM | [45] > 100 µM | [46] > 100 µM | [47] > 100 µM | [48] > 100 µM | [49] > 100 µM | [50] > 100 µM | [51] > 100 µM | [52] > 100 µM | [53] > 100 µM | [54] > 100 µM | [55] > 100 µM | [56] > 100 µM | [57] > 100 µM

COc1nc(N)c(N=O)c(OCc2ccccc2)n1
inactive: [1] > 10 µM | [58] 2.31 µM | [2] 9.29 µM | [3] > 10 µM | [4] > 10 µM | [5] 9.71 µM | [6] > 10 µM | [7] 3.3 µM | [8] > 10 µM | [9] > 10 µM | [10] 4.01 µM | [11] > 10 µM | [59] 8.39 µM | [12] > 10 µM | [13] > 10 µM | [15] 5.36 µM | [16] > 10 µM | [17] 3.32 µM | [18] 6.55 µM | [19] > 10 µM | [20] 5.21 µM | [21] > 10 µM | [22] > 10 µM | [23] 2.76 µM | [24] 2.64 µM | [25] > 10 µM | [26] > 10 µM | [27] 4.84 µM | [28] 3.38 µM | [30] 5.89 µM | [31] > 10 µM | [33] > 10 µM | [34] 1.61 µM | [35] 5.15 µM | [36] > 10 µM | [37] > 10 µM | [38] 6.31 µM | [39] 5.04 µM | [40] 3.51 µM | [41] 4.01 µM | [42] > 10 µM | [43] 4.84 µM | [44] 3.61 µM | [45] > 10 µM | [46] > 10 µM | [47] > 10 µM | [48] 4.84 µM | [49] 7.35 µM | [50] 7.89 µM | [51] > 10 µM | [52] 1.71 µM | [53] 3.12 µM | [54] > 10 µM | [55] 4.19 µM | [56] 3.52 µM | [57] 7.59 µM
active: [32] 1.09 µM
2.5 µM: [29]

CCCN(CCC)C(=S)N/N=C(/C)c1ccccc1O
3.48 µM: [29]
inactive: [1] 7.28 µM | [58] 2.96 µM | [2] 2.51 µM | [3] 6.19 µM | [4] 6.7 µM | [5] 4.04 µM | [6] 5.56 µM | [7] 4.06 µM | [8] 5.94 µM | [9] 14.3 µM | [10] 2.51 µM | [11] 4.98 µM | [59] 4.04 µM | [12] 5.64 µM | [13] 4.06 µM | [14] 4.11 µM | [15] 9.77 µM | [16] 3.84 µM | [17] 9.4 µM | [18] 1.57 µM | [19] > 70 µM | [20] 3.32 µM | [21] 7.71 µM | [22] 15.9 µM | [23] 3.61 µM | [24] 6.31 µM | [26] 10.3 µM | [27] 2.94 µM | [28] 6.28 µM | [30] 3.19 µM | [31] 6.41 µM | [32] 6.46 µM | [33] 4.33 µM | [34] 5.55 µM | [35] 23.6 µM | [36] 4.42 µM | [37] 4.43 µM | [38] 8.38 µM | [39] 4.02 µM | [40] 8.49 µM | [41] 5.25 µM | [42] 14.3 µM | [43] 3.06 µM | [44] 5.96 µM | [45] 10.3 µM | [46] 4.25 µM | [47] 6.84 µM | [48] 3.96 µM | [49] 3.97 µM | [50] 5.81 µM | [51] 10.2 µM | [52] 1.19 µM | [53] 3.2 µM | [54] 12.1 µM | [55] 3.46 µM | [56] 3.42 µM | [57] 5.82 µM
